From US20090143279A1 (priority 2007, published 2009) come the findings set out here.

Read-outs that look alike come from different tables or passages of the source.

For test [1], the system named is mitochondrial membrane potential. It counts as cell-based, mouse.
For the next test, the system named is cytochrome c. The test is classed as cell-based, mouse.
Another test concerns OXPHOS gene expression. The test is classed as cell-based, mouse.
Another test has as its system reactive oxygen species. It counts as cell-based, mouse.
The test system of the next test is mtOXPHOS transcripts. The test is classed as cell-based, mouse.
The subject of another test is nuOXPHOS transcripts. It counts as cell-based, mouse.
Test [2] relates to cellular dehydrogenase activity.
The mark [3] stands for this setting: composite Z-score vs mock-treated (DMSO) wells, concentration of each compound in μM.
The mark [4] stands for this setting: composite Z-score vs DMSO, Conc 20 μM.
Where [5] appears, read: composite Z-score vs DMSO wells, Conc 20 μM.
Setting [6] is: Conc 20 μM, normalized score vs mock-treated (DMSO) wells.
The mark [7] stands for this setting: composite Z-score vs mock-treated (DMSO) wells, Conc 20 μM.

Sequence of cytochrome c (P62897 whole entry): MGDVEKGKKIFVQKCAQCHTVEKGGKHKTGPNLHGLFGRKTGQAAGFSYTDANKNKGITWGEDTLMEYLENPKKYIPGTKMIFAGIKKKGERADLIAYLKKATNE

For `CCOC(=O)[C@H](CCc1ccccc1)N[C@@H](C)C(=O)N1[C@H](C(=O)O)C[C@H]2CCCC[C@@H]21` [trandoapril], the ΔΨm in test [1] (setting [3]) was −0.210. This compound registered a cyt c in the test on cytochrome c (setting [3]) of 0.687. In the test with OXPHOS gene expression (setting [3]), the GE-HTS is −1.375. The compound also gave a Viability in the test on C2C12 myotubes (setting [3]) of 0.694. The compound further had an ROS in the test on reactive oxygen species (setting [3]) of 0.572. The same compound displayed a mitoOX in the test with mtOXPHOS transcripts (setting [3]) of −0.884. The compound also displayed a nucOX with nuOXPHOS transcripts (setting [3]) of −1.466. The compound further yielded an MTT in test [2] (setting [3]) of −0.684.

The compound gentamicin sulfate showed a ΔΨm in test [1] (setting [4]) of −1.213. Moreover, the cyt c with cytochrome c (setting [4]) is −0.896. Further, the GE-HTS with OXPHOS gene expression (setting [4]) is −0.117. The compound further returned a Viability with C2C12 myotubes (setting [4]) of −0.804. In the test on reactive oxygen species (setting [4]), this compound gave an ROS of 0.369. The compound further showed a mitoOX in the test with mtOXPHOS transcripts (setting [4]) of 0.188. The nucOX in the test with nuOXPHOS transcripts (setting [4]) is given as −0.267. Moreover, the MTT in test [2] (setting [4]) is on record as −0.150.

Turning to `CCOC(=O)[N-]c1cn(N2CCOCC2)n[o+]1` [molsidomine], the ΔΨm in test [1] (setting [5]) is −0.537. In addition, the cyt c in the test with cytochrome c is reported as −0.533; with cytochrome c (setting [5]), 0.339. This compound had a GE-HTS in the test on OXPHOS gene expression (setting [5]) of 0.250. The Viability in the test with C2C12 myotubes (setting [5]) is −0.665. For the same compound, the ROS in the test with reactive oxygen species (setting [5]) is −0.398. The mitoOX with mtOXPHOS transcripts (setting [5]) turned out to be 0.106. Besides, the nucOX in the test with nuOXPHOS transcripts (setting [5]) came out at 0.331. In test [2] (setting [5]), this compound showed an MTT of −0.651.

With `C=CC1=C(C)/C(=C/c2[nH]c(Cc3[nH]c(/C=C4\NC(=O)C(C)=C4C=C)c(C)c3CCC(=O)O)c(CCC(=O)O)c2C)NC1=O` [bilirubin], the “ΔΨm (composite Z-score)” value in test [1] (setting [6]) is −1.837. Further, in the test on cytochrome c (setting [6]), the “cyt c (composite Z-score)” value was determined as 1.004. In addition, the “GE-HTS (composite Z-score)” value in the test on OXPHOS gene expression (setting [6]) was determined as 0.312. Besides, the “Viability (composite Z-score)” value with C2C12 myotubes (setting [6]) is −0.649. Moreover, the “ROS (composite Z-score)” value in the test on reactive oxygen species (setting [6]) is listed as 0.249. The “mitoOX (composite Z-score)” value in the test on mtOXPHOS transcripts (setting [6]) stood at 0.427. Further, the “nucOX (composite Z-score)” value in the test on nuOXPHOS transcripts (setting [6]) was determined as 0.250. Moreover, the “MTT (composite Z-score)” value in test [2] (setting [6]) is reported as −1.287.

In turn, `CC(=O)O[C@H]1CC[C@@]2(C)[C@H](CC[C@@H]3[C@@H]2CC[C@]2(C)[C@@H](C4=CC(=O)OC4)[C@@H](OC(C)=O)C[C@]32O)C1` [gitoxigenin diacetate] gave a ΔΨm in test [1] (setting [4]) of −0.792. In the test on cytochrome c (setting [4]), this compound registered a cyt c of 0.684. In the test with OXPHOS gene expression (setting [4]), this compound showed a GE-HTS of −0.594. In the test on C2C12 myotubes (setting [4]), this compound gave a Viability of 0.187. Also, the ROS in the test on reactive oxygen species (setting [4]) came out at 0.508. In the test on mtOXPHOS transcripts (setting [4]), this compound displayed a mitoOX of −0.322. This compound also came in with a nucOX in the test on nuOXPHOS transcripts (setting [4]) of −0.649. The MTT in test [2] (setting [4]) is listed as −1.077.

Turning to `COC1=C[C@@H]2[C@@H]3Cc4ccc(OC)c(O)c4[C@]2(CCN3C)CC1=O` [sinomenine], the ΔΨm in test [1] (setting [4]) is reported as −0.657. This compound yielded a cyt c in the test with cytochrome c (setting [4]) of −0.117. Besides, the GE-HTS in the test with OXPHOS gene expression (setting [4]) is −0.875. Further, in the test with C2C12 myotubes (setting [4]), the Viability is −0.937. The compound further showed an ROS with reactive oxygen species (setting [4]) of 0.777. In addition, in the test on mtOXPHOS transcripts (setting [4]), the mitoOX was −1.253. The compound also came in with a nucOX in the test on nuOXPHOS transcripts (setting [4]) of −0.565. In test [2] (setting [4]), this compound returned an MTT of −1.489.

In test [1] (setting [5]), `CC(=O)O[C@H]1C[C@H](O[C@H]2[C@@H](O)C[C@H](O[C@H]3[C@@H](O)C[C@H](O[C@H]4CC[C@@]5(C)[C@H](CC[C@@H]6[C@@H]5C[C@@H](O)[C@]5(C)[C@@H](C7=CC(=O)OC7)CC[C@]65O)C4)O[C@@H]3C)O[C@@H]2C)O[C@H](C)[C@H]1O[C@@H]1O[C@H](CO)[C@@H](O)[C@H](O)[C@H]1O` [lanatoside C] came in with a ΔΨm of −1.105. Further, the cyt c with cytochrome c (setting [5]) is on record as 0.664. Besides, the GE-HTS in the test with OXPHOS gene expression (setting [5]) is given as −0.931. In the test with C2C12 myotubes (setting [5]), this compound displayed a Viability of −0.704. For the same compound, in the test with reactive oxygen species (setting [5]), the ROS is −0.033. This compound also yielded a mitoOX in the test on mtOXPHOS transcripts (setting [5]) of −0.935. The compound also registered a nucOX in the test with nuOXPHOS transcripts (setting [5]) of −0.844. In test [2] (setting [5]), this compound showed an MTT of −0.887.

`CC1(C)C(=O)C=C[C@@]2(C)C1CC(=O)[C@@]1(C)C3=CC(=O)O[C@@H](c4ccoc4)[C@]3(C)CCC12` (stereo partly shown) [7-deacetoxy-7-oxodeoxygedunin]: in test [1] (setting [7]), the ΔΨm is 0.757. For the same compound, the cyt c with cytochrome c (setting [7]) turned out to be 0.166. Moreover, in the test on OXPHOS gene expression (setting [7]), the GE-HTS is −1.791. The Viability in the test with C2C12 myotubes (setting [7]) is on record as 0.224. The same compound showed an ROS in the test on reactive oxygen species (setting [7]) of −0.489. The mitoOX with mtOXPHOS transcripts (setting [7]) is on record as −1.925. The compound further came in with a nucOX in the test on nuOXPHOS transcripts (setting [7]) of −1.586. This compound registered an MTT in test [2] (setting [7]) of −1.467.

`CC(COc1ccccc1)NC(C)C(O)c1ccc(O)cc1` (stereo not shown) [isoxsuprine] gave a ΔΨm in test [1] (setting [4]) of −1.246. In addition, the results for the cyt c in the test with cytochrome c (setting [4]) and in the test on cytochrome c (setting [3]) were 0.295 and −0.148, respectively. Also, the GE-HTS in the test on OXPHOS gene expression (setting [4]) is −0.050. In addition, the Viability with C2C12 myotubes (setting [4]) is −0.141. For the same compound, the ROS in the test on reactive oxygen species (setting [4]) was found to be 1.375. Also, the mitoOX with mtOXPHOS transcripts (setting [4]) came out at 0.463. Besides, in the test on nuOXPHOS transcripts (setting [4]), the nucOX is recorded as −0.267. Further, the MTT in test [2] (setting [4]) was −1.776.

In test [1] (setting [4]), `Oc1ccc([C@H]2Oc3cc(O)cc(O)c3C[C@H]2O)cc1` [(2R,3R)-(−)-epiafzelechin] showed a ΔΨm of −3.118. The compound further came in with a cyt c in the test on cytochrome c (setting [4]) of 0.166. The same compound showed a GE-HTS with OXPHOS gene expression (setting [4]) of −0.497. In the test with C2C12 myotubes (setting [4]), this compound gave a Viability of −0.719. The compound also returned an ROS in the test on reactive oxygen species (setting [4]) of 1.019. Further, the mitoOX in the test with mtOXPHOS transcripts (setting [4]) is −0.225. The compound also showed a nucOX in the test on nuOXPHOS transcripts (setting [4]) of −0.559. In test [2] (setting [4]), this compound returned an MTT of −0.486.
